Data reported in patent US9505798B2, “Steroid compounds as RORyt modulators and uses thereof” (New York University, priority 2010, dated 2016).

Columns and labels:
[1] = tested on: IL-17a production in human CD4+ T cells; test: Human cord blood CD4+ T cells expressing murine ATP1a1, Th17 conditions; assay type: cell-based; settings: murine Na+/K+-ATPase α1 expressed, 10 μM
Method: Blood samples were obtained from the New York Blood Center. Mononuclear cells were prepared from buffy coats from healthy adult donors or from cord blood, using FicollPAQUE gradients. CD4^+ T cells were magnetically selected (autoMACS, Miltenyi). Adult memory CD4+ T cell subsets were further purified as CD3^+CD4^+CD25^−CD45RO^+CCR6^+CD161^+ by cell sorting on a FACSAria (BD). Naive CD4^+ T cells were isolated from cord blood as CD3^+CD4^+CD45RA^+HLA^−DR^−CD25^−DAPI^−. Memory cells were activated with anti-CD3/CD28 coated beads (1 bead/cell) in T cell media (see above) supplemented with 100 U/mL IL-2 (Peprotech), 10 ng/mL IL-1β and 10 ng/mL IL-23 (eBioscience). Naive cells were activated with anti-CD3/CD28 beads and cultured with the same cytokines, and TGF-β (0, 0.1, 1, or, 10 ng/mL) (Peprotech), in XVIVO-20 (Lonza) media. […] Naive CD4+ T cells, cultured in XVIVO-20 media supplemented with 100 U/mL IL-2 (Peprotech), were transduced with RORαd-IRES-GFP or RORγt-IRES-GFP on day 1 and analyzed on day 6. GFP expressing cells were gated for analysis. DMSO or compounds were added 6-8 hours after the viral transduction.

[2] = molecular target: T1, RORγt binding to Il17a/f and Il23r loci (Mus musculus, UniProt P51450); test: Chromatin immunoprecipitation of RORγt at target loci in Th17-polarized cells; assay type: cell-based; settings: 10 and 20 μM, ChIP
T1 construct: endogenous in cells; host or cells: mouse Th17-polarized CD4+ T cells

[3] = tested on: RORγ LBD mutants (L290, C318, A494); test: Random mutagenesis of RORγ LBD, digoxin resistance in S2 reporter; assay type: cell-based, mouse; settings: mutations at L290, C318 and A494
[4] = tested on: experimental autoimmune encephalomyelitis (EAE); test: Active EAE (MOG35-55/CFA) in C57BL/6 mice; assay type: in vivo, mouse
[5] = tested on: mouse Th17 cell differentiation; test: In vitro mouse naive CD4+ T cell polarization; assay type: cell-based
Method: (§1) Naive CD25^− CD62L^+CD44^low/int cells were sorted from RORγt^fl/fl mice and transduced with control-IRES-GFP (WT) or CRE-IRES-GFP (KO) retrovirus. […] FACS-sorted naive T cells were transduced with retroviral vectors encoding murine RORα-IRES-GFP or RORγt-IRES-GFP on Day 1 (16 h after TCR stimulation) and GFP expressing cells were gated for analysis on Day 5. […] Lymphocytes were isolated on day 21 after disease induction. The cells were stimulated for 4 h with PMA/Ionomycin and stained for surface markers and intracellular cytokines.
(§2) T cells were purified from lymph nodes and spleens of six to eight weeks old B6 mice (Taconic), by magnetically depleting B220^+ cells (autoMACS, Miltenyi), and then sorting CD8^−DAPI^−CD19^−CD4^+CD25^−CD62L^+CD44^low/Int naive T cells on a FACSAria (BD). […] For T cell polarization, 200 μl cells were seeded at 0.4×10^5 cells per mL in 96-well plates pre-coated with anti-CD3ε (5 μg/mL) and anti-CD28 (10 μg/mL). Cells were cultured for 4-5 days in Th17 (TGF-β (0.3 ng/mL), IL-6 (20 ng/mL), and anti-IFN-γ and anti-IL-4 (2 ng/mL)), Th1 (IL-12 (10 ng/mL), IL-2 (10 U/mL) and anti-IL-4 (2 ng/mL)), or Th2 (IL-4 (10 ng/mL), and anti-P35 and anti-IFN-γ 2 ng/mL)) conditions. For ectopic expression ROR proteins, native CD4^+ T cells were infected with retroviral MIGr-control, MIGr-RORα or MIGr-RORγ 24 hrs after activation, and cultured without exogenous cytokines or only with IL-6. At day 1, compounds dissolved in DMSO were added. For cytokine analysis, cells were incubated for 5 hours with phorbol 12-myristate 13-acetate (50 ng/mL; Sigma), ionomycin (500 ng/mL; Sigma) and GolgiStop (BD). Intracellular cytokine staining was performed according to the manufacturer's protocol (Cytofix/Cytoperm buffer set from BD) with alexa647-conjugated anti-IL-17a (eBioscience), and PE-conjugated anti-IFN-γ or anti-IL-4 (eBioscience). An LSR II (BD Biosciences) and FlowJo software (Tree Star) were used for flow cytometry and analysis. Dead cells were excluded using the Live/Dead fixable aqua dead cell stain kit (Invitrogen).
Complementary DNAs (cDNAs) were synthesized from TRIzol (Invitrogen) isolated RNA, using M-MLV Reverse Transcriptase (Promega). Real-time RT-PCR was performed with SYBRgreen master mix (Roche) and the Roche real-time PCR system (Roche480). Gene specific values were normalized to Actb for each sample.

[6] = tested on: pre-differentiated mouse Th17 cells; test: Pre-differentiated mouse Th17 cells from MOG-immunized mice, in vitro; assay type: cell-based; settings: expanded Th17 cells from immunized mice, 10 μM
From the text: Mononuclear cells were collected from draining lymph nodes of wild-type or IL-23RGFP knock-in heterozygous mice 7 days after MOG(35-55)/CFA injection.

[7] = tested on: aryl hydrocarbon receptor (AHR); test: AHR ligand FICZ effect on RORα-dependent IL-17a expression; assay type: cell-based, mouse; settings: FICZ added
human androgen receptor = molecular target: T2, human androgen receptor (Homo sapiens, UniProt P10275); test: S2 cell human androgen receptor reporter; assay type: cell-based
T2 construct: expressed in transfected cells; host or cells: Drosophila S2 cells, plasmid pMK33-hAR

RORγt = molecular target: T3, RORγt (Mus musculus, UniProt P51450); assay type: cell-based
T3 construct: expressed in transfected cells; host or cells: mouse naive CD4+ T cells, retroviral MIGr vector
Method: as §1, §2

T2 sequence (P10275 whole entry): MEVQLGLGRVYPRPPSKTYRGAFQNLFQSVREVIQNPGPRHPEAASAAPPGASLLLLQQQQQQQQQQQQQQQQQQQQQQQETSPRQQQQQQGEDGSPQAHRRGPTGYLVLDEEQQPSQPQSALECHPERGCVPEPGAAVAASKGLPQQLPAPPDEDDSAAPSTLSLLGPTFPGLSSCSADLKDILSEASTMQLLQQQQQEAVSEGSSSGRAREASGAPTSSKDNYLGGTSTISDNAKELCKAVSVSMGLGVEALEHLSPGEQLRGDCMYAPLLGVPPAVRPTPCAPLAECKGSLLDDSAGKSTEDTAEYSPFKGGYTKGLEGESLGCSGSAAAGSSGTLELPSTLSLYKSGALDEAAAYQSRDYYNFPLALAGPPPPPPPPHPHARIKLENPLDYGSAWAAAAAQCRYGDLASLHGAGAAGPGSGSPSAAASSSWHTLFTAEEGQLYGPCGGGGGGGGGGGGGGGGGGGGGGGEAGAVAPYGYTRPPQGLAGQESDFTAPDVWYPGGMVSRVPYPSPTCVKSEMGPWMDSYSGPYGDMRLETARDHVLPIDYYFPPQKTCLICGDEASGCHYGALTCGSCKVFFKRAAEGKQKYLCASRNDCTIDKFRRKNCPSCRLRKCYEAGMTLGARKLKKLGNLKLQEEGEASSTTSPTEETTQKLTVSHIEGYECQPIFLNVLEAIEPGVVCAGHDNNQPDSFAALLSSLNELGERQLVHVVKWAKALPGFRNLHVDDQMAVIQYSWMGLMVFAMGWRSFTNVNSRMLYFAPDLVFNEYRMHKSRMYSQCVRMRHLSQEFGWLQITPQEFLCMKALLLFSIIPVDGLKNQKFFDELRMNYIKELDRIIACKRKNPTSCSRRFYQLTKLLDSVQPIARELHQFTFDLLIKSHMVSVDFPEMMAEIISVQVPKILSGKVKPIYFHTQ
T3 sequence (P51450 other isoform, or with tags, fused parts or gaps): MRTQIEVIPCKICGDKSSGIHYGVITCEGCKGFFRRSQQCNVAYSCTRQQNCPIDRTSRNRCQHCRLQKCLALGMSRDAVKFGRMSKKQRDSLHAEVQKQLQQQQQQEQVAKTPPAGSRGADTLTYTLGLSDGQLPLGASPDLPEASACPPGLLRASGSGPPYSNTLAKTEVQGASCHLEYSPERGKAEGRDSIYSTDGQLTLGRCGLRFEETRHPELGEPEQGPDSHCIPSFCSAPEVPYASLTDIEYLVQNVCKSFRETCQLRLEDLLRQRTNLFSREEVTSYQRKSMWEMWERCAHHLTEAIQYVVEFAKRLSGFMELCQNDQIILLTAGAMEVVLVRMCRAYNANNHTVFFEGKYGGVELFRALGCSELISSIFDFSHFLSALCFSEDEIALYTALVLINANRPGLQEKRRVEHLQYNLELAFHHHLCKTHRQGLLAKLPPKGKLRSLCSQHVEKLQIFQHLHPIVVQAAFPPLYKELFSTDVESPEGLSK
T1 sequence (P51450 1-495 isoform P51450-2): as the sequence (P51450 other isoform, or with tags, fused parts or gaps) above

C[C@H]1O[C@@H](O[C@H]2[C@@H](O)C[C@H](O[C@H]3[C@@H](O)C[C@H](O[C@H]4CC[C@@]5(C)[C@H](CC[C@@H]6[C@@H]5C[C@@H](O)[C@]5(C)[C@@H](C7=CC(=O)OC7)CC[C@]65O)C4)O[C@@H]3C)O[C@@H]2C)C[C@H](O)[C@@H]1O [Digoxin]
IL-17a expression [1]: suppressed IL-17a production without affecting IFN-γ expression | RORγt binding to sites in Il17a/f and Il23r [2]: substantially reduced | sensitivity of mutant RORγ to inhibition [3]: much less sensitivity | EAE onset and severity of progression ([4]; IP daily from day 2): not only delayed onset, but also reduced severity | percentage of IFN-γ-producing Th1 cells infiltrating the spinal cord ([4]; compared to DMSO-treated mice): approximately the same | reduction of percentage of IL-17-producing T cells infiltrating the spinal cord ([4]; compared to DMSO-treated mice, day 21): more than 50% | total number of mononuclear cells infiltrating the spinal cord ([4]; mouse, in vivo): markedly reduced | differentiation of naive CD4+ T cells into Th1, Th2 and regulatory T cells [5]: no effect | induction of RORγt mRNA and protein expression ([5]; Th17 conditions): not affected | transcriptional up-regulation of IL-23 receptor (IL-23R) gene ([5]; Th17 polarizing conditions): strongly inhibited | expression of IL-17a mRNA and protein ([5]; Th17 polarizing conditions, 10 μM): markedly reduced | IL-23R and IL-17a expression [6]: inhibited both IL-23R (FIG. 4a) and IL-17a (FIG. 4b, bottom) expression without affecting IFN-γ expression | AHR activity [7]: unaffected | inhibition of human androgen receptor activity (human androgen receptor): did not inhibit | RORγt- versus RORα-mediated induction of IL-17a (RORγt): suppressed RORγt—but not RORα-mediated induction of IL-17a
